Measurements from US6794154B1, “Remedies for kidney diseases and method for screening the same” (Tanabe Seiyaku Co., Ltd., priority 1999, dated 2004).

What was measured:
[1] = test system: L-FABP mRNA in human urinary exfoliated cells (human renal tubular epithelial cells); test: L-FABP up-regulating activity at mRNA level (RT-PCR) in human urinary exfoliated cells; type: cell-based; conditions: 10 μM (Table 1), listed as THA
Description: Renal tubular epithelial cells exfoliated from kidney tissues into urine (hereafter, referred to as “urinary exfoliated cell”) were isolated from human urine sample and cultured in the following manner. Firstly, urine samples from male infant nephritis patients (0-3 years old) were collected using the clean-catch method. The urine samples were then centrifuged (1000 rpm, 10 minutes) at room temperature and the supernatant was discarded. The pellet was washed with 10% (v/v) fetal calf serum-containing Dulbecco's modified Eagle's medium twice and then with culture medium once. The culture medium used herein was a mixture (1:1) of Dulbecco's modified Eagle's medium and Ham's F-12 medium, to which mixture was added fetal calf serum (10% v/v), insulin (5 μg/ml), transferrin (5 μg/ml), sodium selenite (5 ng/ml), dexamethasone (10^−8 M), nicotinamide (5 mM), penicillin (100 IU/ml) and streptomycin (100 μg/ml). The pellet was suspended into the culture medium, diluted appropriately and then cultured in collagen type 4-coated dish (3.5 cm in diameter, Falcon). The cultivation was performed under the condition of 5% CO2, 37° C. […] Also, in order to normalize the measurement values, rBAT (related to b^0,+ system amino acid transporter; Purroy et. al., Genomics, Vol 37. pp. 249-252, 1996) mRNA was detected as control by RT-PCR.

[2] = test system: human L-FABP gene transcriptional regulatory region (luciferase reporter); test: L-FABP up-regulating activity by luciferase reporter assay in proximal renal tubular epithelial cell line mProx 37-13; type: cell-based; conditions: mProx 37-13 cells, serum-free medium, luciferase measured after 2 to 10 hours; FIG. 4
Description: A test substance was examined for the L-FABP up-regulating activity by reporter assay method in the following manner using the proximal renal tubular epithelial cell line mProx 37-13 (also referred as “cell line No. 13”) comprising L-FABP reporter DNA construct and was prepared in Example 2 above. Firstly, the cell line mProx 37-13 was added in 96-well flat-bottom plates at 5×10^4 cells/ 100 μl/well and cultured. The cultivation was conducted using plates pre-coated with 0.1% gelatin and, as a medium, a high glucose-containing Dulbecco's MEM medium (Dulbecco's MEM, high glucose; DMEM) (Gibco) supplemented with 10% fetal calf serum, 100 unit/ml of penicillin and 100 μg/ml of streptomycin. […] After additional cultivation, Luciferase activity was detected after 2 to 10 hours. Luciferase activity was measured in the following way. […] After the plate stored at −80° C. was allowed to become room temperature, 100 μl of luminescence substrate solution (PicaGene luminescence kit, TOYO INK) was added to initiate reaction. Amount of luminescence was detected using luminometer (MicroLumat LP98P, BERTHOLD). […] The luciferase induction rate (Luc induction rate) was calculated based on the activity value according to the following equation: Luc induction rate=(test value)/(control value).

[3] = test system: human L-FABP; test: L-FABP up-regulating activity at protein level (Western blotting or ELISA) in LLC-PK1 or mouse immortalized renal tubular epithelial cells carrying the human L-FABP chromosomal gene; type: cell-based; conditions: 1 μM, serum-free DMEM; anti-human L-FABP antibody
Source text: The plasmid isolated in Example 1, (2) above, which contains human L-FABP chromosomal gene (entire length), was linealized and transfected into the porcine renal tubular cell line LLC-PK1 or mouse immortalized renal tubular epithelial cells prepared in a manner similar to that described in Example 2 (3) above to obtain stable transformed cell lines. The human L-FABP chromosomal gene was integrated into these cells on their chromosome without deletion. Using these cells, L-FABP up-regulating activity of test compounds were examined at RNA level and protein level in the following manner. Cells were cultured to become confluent, when the medium was replaced with serum-free DMEM medium, and test compounds were added to the medium at final concentration of 1 μM. The cultivation was continued at 37° C. Control sample was obtained without adding any test compounds. Measurement at protein level was carried out in the following manner. Cultivated cells were collected and sonicated and then cell extract was prepared. The amount of L-FABP in the extract was detected by Western Blotting method or ELISA method with anti-human L-FABP antibody. […] The up-regulating effect on L-FABP protein expression was also observed when Etomoxir was added.

[4] = test system: human L-FABP mRNA; test: L-FABP up-regulating activity at mRNA level (RT-PCR) in LLC-PK1 or mouse immortalized renal tubular epithelial cells carrying the human L-FABP chromosomal gene; type: cell-based; conditions: 1 μM, serum-free DMEM; from 15 minute to 24 hour after beginning of cultivation; normalised to GAPDH mRNA
Source text: The plasmid isolated in Example 1, (2) above, which contains human L-FABP chromosomal gene (entire length), was linealized and transfected into the porcine renal tubular cell line LLC-PK1 or mouse immortalized renal tubular epithelial cells prepared in a manner similar to that described in Example 2 (3) above to obtain stable transformed cell lines. The human L-FABP chromosomal gene was integrated into these cells on their chromosome without deletion. Using these cells, L-FABP up-regulating activity of test compounds were examined at RNA level and protein level in the following manner. Cells were cultured to become confluent, when the medium was replaced with serum-free DMEM medium, and test compounds were added to the medium at final concentration of 1 μM. The cultivation was continued at 37° C. Control sample was obtained without adding any test compounds. Measurement at mRNA level was carried out in the following manner. After cultivation, cells were collected and total RNA was prepared. […] Also, in order to normalize the measurement values, GAPDH (glyceraldehyde 3-phosphate dehydrogenase) mRNA was detected as control in the similar RT-PCR. The resulted PCR products were subjected to agarose-gel electrophoresis, the gel was stained with ethidium bromide to detect bands respectively and the expression amount was determined by densitometry, or visually.

[5] = test system: adriamycin-induced glomerular sclerosis mouse; test: Adriamycin-induced glomerular sclerosis model mouse (BALB/c); type: in vivo
Source text: An adriamycin-induced glomerular sclerosis mouse was used as a renal disease model to confirm effect of PPAR agonist MCC-555 in the following manner. An adriamycin(AD)-induced glomerular sclerosis mouse is a pathological model which develops focal glomerular sclerosis in 3 weeks after the onset of nephrosis symptom while showing the symptom and eventually results in irreversible chronic renal insufficiency (Chen et. al., Nephron, vol. 78, pp.440-452, 1998). As shown in Examples 3, 4 and 5, MCC-555 is a compound confirmed to have L-FABP up-regulating activity. In the experiment, 7-week-age female BALB/c mice (purchased from Charles River Japan, Inc.) were used. At the first day of experiment (Day 0), Adriamycin (Sigma) was administered intravenously at 10 mg/kg (10 ml/kg dissolved in saline at 1 mg/ml). Normal group received intravenously an equivalent amount of saline only. To the mice were administered orally MCC-555 or carrier alone for 14 days from the first day of experiment (Day 0 to Day 13). The administration was initially conducted 1 hour before the adriamycin administration, and administration volume was 10 ml/kg for each time. In drug administration group (n=6), MCC-555 (suspension in 0.1% Tween 80-containing purified water) was administered at a dose of 10 mg/kg to mice that have received adriamycin. In control group (n=6), carrier (0.1% Tween 80-containing purified water) alone was administered to mice that have received adriamycin. Also in normal group (n=3), mice received carrier alone. Mice were separately housed in “a metabolic cage” and allowed to access food and water ad libitum while collecting urine for 24 hours. Specifically, collection of urine was performed 4 times in total, i.e., day 3-4, day 6-7, day 9-10, and day 13-14. Following measurement of volume, the collected urine was subjected to determination of urinary protein, NAG (N-acetyl-β-D-glucosaminidase) and creatinine (CRE) concentrations by clinical chemistry analyzer (SuperZ-818, […] Co.) After the collection of urine on the last experiment day (Day 14), blood was collected via abdominal aorta under ethereal anesthetization and serum was separated. Cholesterol and albumin were determined using Automated clinical analyzer TBA-80FR (TOSHIBA). Also, kidneys were isolated and fixed with neutral buffered formalin.

[6] = test system: adriamycin-induced glomerular sclerosis hFABP-Tg mouse; test: Adriamycin-induced glomerular sclerosis model in transgenic mouse introduced with human L-FABP gene (hFABP-Tg mouse); type: in vivo; conditions: 10 mg/kg
Description: Transgenic mouse (hFABP-Tg mouse) introduced with human L-FABP gene was prepared. The hFABP-Tg mouse was used to make renal disease model similar to that of Example 8 and the effect of MCC-555 was identified.
In the preparation of hFABP-Tg mouse, male BCF1 mouse (13-week or over) was used for sterile mating and natural mating; female ICR mouse (10-week or over) for embryo transplant and as a foster mother; male BDF1 mouse (13-week or over) for mating; and female BCF1 mouse (8-week or over) for collection of eggs, respectively. The resultant transgenic mouse (B6C3F1 line) was used to backcross with BALB/c mouse.
The resultant female transgenic mouse was used to prepare a renal disease model (adriamycin-induced glomerular sclerosis model) and to confirm effects of drug (MCC-555). The preparation of disease model and confirmation of effect of a drug were conducted in a similar manner to that described in Example 8 above except that the dose of adriamycin on the first experiment day (Day 0) was 15 mg/kg (15 ml/kg, dissolved in saline at concentration of 1 mg/ml).
In drug administration group (n=5), MCC-555 (10 mg/kg) was administered to mice that have received adriamycin, and in control group (at the beginning of experiment, n=5), only carrier was administered to mice that have received adriamycin, In normal group (n=3), mice that were not treated with adriamycin received carrier. Collection of urine was performed 3 times in total, i.e., day 6-7 day (Day 7), day 10-11 (Day 11), and day 13-14 (Day 14) and urinary protein, NAG and creatinine concentrations were determined by Automated clinical analyzer after measurements of urine volume.

[7] = adriamycin 15 mg/kg, Day 7, 11, 14, FIG. 9

SMILES	L-FABP mRNA [1]	Induction of luciferase activity (L-FABP up-regulating activity) [2]	Up-regulating effect on L-FABP protein expression [3]	Induction of L-FABP mRNA [4]	Histological changes of kidney (tissue imaging examination) ([5]; 10 mg/kg orally for 14 days)	NAG excretion (index of proximal renal tubular injury) ([5]; 10 mg/kg orally for 14 days (Day 0 to Day 13), adriamycin 10 mg/kg i.v., FIG. 7)	Proteinuria (urinary protein) ([5]; 10 mg/kg orally for 14 days, adriamycin 10 mg/kg i.v., FIG. 7)	Blood biochemical examination parameters (blood cholesterol and albumin level) ([5]; 10 mg/kg orally for 14 days, serum at Day 14, FIG. 8)	Increase of NAG excretion amount after AD administration [6, 7]	Increase of urinary protein after AD administration [6, 7]	Animals died during the experiment ([6]; n=5, in the control group 3 animals died)
CCCc1c(OCCCCCCc2nn[nH]n2)ccc(C(C)=O)c1O [4-THA, 2-hydroxy-3-propyl-4-[6-(tetrazol-5-yl)hexyloxy]acetophenone]	increased	–	–	–	–	–	–	–	–	–	–
CCOC(=O)C1(CCCCCCOc2ccc(Cl)cc2)CO1 (stereo not shown) [Etomoxir, ethyl 2-[6-(4-chlorophenoxy)hexyl]oxiranecarboxylate]	–	Induction of luciferase activity was observed	also observed	–	–	–	–	–	–	–	–
O=C1NC(=O)C(Cc2ccc3cc(OCc4ccccc4F)ccc3c2)S1 (stereo not shown) [MCC-555, 5-[6-(2-fluorobenzyloxy)naphthalene-2-ylmethyl]thiazolidine-2,4-dione]	–	Induction of luciferase activity was observed	up-regulating effect on L-FABP protein expression was observed	induction of L-FABP mRNA was observed	inhibited	suppressed	improved	improved	significantly suppressed	significantly suppressed	no animals died
